# Test results from ChEMBL document CHEMBL1201862, “PubChem BioAssay data set” (2004).
# Calls of active or inactive are those of the source.
# Experiments:
# [1] = Luminescence Cell-Based Dose Confirmation HTS to Identify Inhibitors of Platelet Dense Granule Release. [Related pubchem assays: 1663 (Primary HTS), 1678 (Summary of Project)]; assay type: functional
# [2] = target: Luciferin 4-monooxygenase (Photinus pyralis, UniProt P08659); experiment: inhibition of purified Photinus pyralis luciferase – biochemical, luminescence, dose response (AID 1891)
# Luciferin 4-monooxygenase, sequence (P08659 whole entry): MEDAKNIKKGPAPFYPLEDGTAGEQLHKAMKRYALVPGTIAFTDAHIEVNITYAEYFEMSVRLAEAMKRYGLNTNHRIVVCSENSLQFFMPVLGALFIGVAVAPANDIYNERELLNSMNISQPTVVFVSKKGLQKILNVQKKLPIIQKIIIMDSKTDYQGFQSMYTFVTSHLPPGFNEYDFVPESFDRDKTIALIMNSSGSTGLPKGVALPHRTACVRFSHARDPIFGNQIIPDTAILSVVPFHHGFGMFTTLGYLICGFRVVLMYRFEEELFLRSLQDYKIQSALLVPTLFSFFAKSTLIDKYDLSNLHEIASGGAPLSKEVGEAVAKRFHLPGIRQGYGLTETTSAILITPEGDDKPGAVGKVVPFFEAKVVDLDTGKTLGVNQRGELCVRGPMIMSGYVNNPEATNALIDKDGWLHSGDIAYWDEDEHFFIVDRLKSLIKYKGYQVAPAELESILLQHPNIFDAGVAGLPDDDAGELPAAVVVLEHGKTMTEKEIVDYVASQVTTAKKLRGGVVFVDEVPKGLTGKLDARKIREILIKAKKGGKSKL
# [3] = test system: H9c2; experiment: cells; assay type: functional, cell-based; details: Rattus norvegicus, H9c2, Myocardium;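 further: confirmatory concentration-response retest of ultra-high-throughput screening hits for modulation of myocardial damage; cell death induced by hydrogen peroxide oxidative stress; compound pretreatment for 60 min then peroxide exposure for 2 h; potency is for protecting the cells against peroxide damage rather than for killing them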
# [4] = target: T1, Leucine aminopeptidase (Plasmodium falciparum 3D7, UniProt Q8IL11); experiment: P. falciparum M17LAP inhibitors, primary screen, biochemical, fluorogenic H-Leu-NHMec substrate, 1536-well (AID 1619); assay type: functional
# T1 sequence (Q8IL11 whole entry): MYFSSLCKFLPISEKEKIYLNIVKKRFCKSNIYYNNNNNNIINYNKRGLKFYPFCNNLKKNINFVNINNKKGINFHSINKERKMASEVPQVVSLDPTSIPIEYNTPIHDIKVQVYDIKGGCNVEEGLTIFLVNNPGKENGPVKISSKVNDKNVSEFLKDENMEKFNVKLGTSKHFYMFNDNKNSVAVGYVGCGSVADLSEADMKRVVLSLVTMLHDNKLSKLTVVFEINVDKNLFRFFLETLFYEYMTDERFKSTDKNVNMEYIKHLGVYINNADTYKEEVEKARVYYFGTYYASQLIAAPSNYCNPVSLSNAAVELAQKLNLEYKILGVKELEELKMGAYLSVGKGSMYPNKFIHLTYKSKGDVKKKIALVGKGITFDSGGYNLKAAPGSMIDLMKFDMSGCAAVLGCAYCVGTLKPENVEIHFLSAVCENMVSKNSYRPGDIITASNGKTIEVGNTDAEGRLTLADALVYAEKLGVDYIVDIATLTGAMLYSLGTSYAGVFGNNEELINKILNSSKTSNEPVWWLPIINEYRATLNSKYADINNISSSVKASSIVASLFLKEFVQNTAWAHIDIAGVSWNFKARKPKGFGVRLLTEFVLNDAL
# [5] = test system: H4; experiment: Luminescence Cell-Based Dose Response HTS to Identify Activators of 5'UTR Stem-Loop Driven Prion Protein mRNA Translation in H4 Neuroglioblastoma Cells. [Related pubchem assays: 1829 (Project Summary), 1814 (Primary HTS)]; assay type: functional; details: Homo sapiens
# [6] = Luminescence Cell-Based Dose Response HTS to Identify Activators of Luciferase Translation or Activity in H4 […] Cells. [Related pubchem assays: 1829 (Project Summary), 1814 (Primary HTS)]; assay type: functional
# [7] = Luminescence Cell-Based Dose Confirmation HTS to Identify Activators of 5'UTR Stem-Loop Driven Alpha-Synuclein mRNA Translation in H4 Neuroglioblastoma Cells. [Related pubchem assays: 1829 (Project Summary), 1814 (Primary HTS)]; assay type: functional
# [8] = target: T2, Estrogen receptor (Homo sapiens, UniProt P03372);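 further: potency for inhibiting coactivator peptide recruitment to the receptor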
# T2 sequence (P03372 whole entry): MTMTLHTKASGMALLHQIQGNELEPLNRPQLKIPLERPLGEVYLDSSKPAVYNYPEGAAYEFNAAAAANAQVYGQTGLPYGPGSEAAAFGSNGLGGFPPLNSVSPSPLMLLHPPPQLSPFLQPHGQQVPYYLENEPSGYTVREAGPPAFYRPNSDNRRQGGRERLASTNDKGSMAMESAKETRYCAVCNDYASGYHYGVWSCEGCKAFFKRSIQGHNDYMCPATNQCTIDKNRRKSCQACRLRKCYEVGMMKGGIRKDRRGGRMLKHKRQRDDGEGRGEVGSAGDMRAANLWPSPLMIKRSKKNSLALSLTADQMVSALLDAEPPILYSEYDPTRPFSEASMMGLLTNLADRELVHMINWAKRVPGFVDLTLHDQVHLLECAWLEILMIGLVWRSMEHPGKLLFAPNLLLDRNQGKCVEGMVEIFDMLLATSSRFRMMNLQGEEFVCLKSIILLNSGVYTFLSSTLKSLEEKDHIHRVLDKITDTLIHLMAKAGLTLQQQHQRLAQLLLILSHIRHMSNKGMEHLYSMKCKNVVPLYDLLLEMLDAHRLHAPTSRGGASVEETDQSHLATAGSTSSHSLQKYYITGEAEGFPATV
# [9] = target: T3, Protein skinhead-1 (Caenorhabditis elegans, UniProt P34707); assay type: functional
# T3 sequence (P34707 whole entry): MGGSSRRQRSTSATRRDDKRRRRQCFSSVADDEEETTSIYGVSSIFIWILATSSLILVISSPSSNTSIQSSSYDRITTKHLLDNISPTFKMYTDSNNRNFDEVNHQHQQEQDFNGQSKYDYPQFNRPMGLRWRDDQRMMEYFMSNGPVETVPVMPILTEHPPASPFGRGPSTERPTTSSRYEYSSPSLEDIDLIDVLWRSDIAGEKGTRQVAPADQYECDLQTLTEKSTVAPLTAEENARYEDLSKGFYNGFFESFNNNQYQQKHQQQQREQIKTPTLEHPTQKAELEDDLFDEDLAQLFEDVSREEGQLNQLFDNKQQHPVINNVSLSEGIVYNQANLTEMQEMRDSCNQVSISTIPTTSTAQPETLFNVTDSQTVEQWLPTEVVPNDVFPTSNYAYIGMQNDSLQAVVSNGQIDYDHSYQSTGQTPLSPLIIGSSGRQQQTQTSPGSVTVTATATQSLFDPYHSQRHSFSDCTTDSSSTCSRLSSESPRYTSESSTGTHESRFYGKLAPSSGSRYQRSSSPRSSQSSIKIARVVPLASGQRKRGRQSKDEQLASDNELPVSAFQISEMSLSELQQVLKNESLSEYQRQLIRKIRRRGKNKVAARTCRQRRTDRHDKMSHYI
# [10] = target: Cytochrome P450 2D6 (Homo sapiens, UniProt P10635);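 further: CYP2D6 member of a cytochrome P450 panel assay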
# Cytochrome P450 2D6, sequence (P10635 whole entry): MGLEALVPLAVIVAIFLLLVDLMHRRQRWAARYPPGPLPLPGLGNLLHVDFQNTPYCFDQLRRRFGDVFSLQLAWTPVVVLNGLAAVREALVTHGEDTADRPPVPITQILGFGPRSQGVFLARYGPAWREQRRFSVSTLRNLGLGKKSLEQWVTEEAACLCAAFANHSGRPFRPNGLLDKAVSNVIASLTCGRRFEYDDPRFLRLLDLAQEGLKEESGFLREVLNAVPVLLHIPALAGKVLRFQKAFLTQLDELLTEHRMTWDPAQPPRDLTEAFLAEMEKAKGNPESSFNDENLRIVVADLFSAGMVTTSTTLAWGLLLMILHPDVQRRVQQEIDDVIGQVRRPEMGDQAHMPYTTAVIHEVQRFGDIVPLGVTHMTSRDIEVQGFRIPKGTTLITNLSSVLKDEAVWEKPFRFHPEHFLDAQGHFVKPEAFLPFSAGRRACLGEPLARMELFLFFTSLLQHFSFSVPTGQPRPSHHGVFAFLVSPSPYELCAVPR
# [11] = intracellular Trypanosoma cruzi inhibitors in host cells – cell-based, plate reader, cherry-pick samples, set 3, dose response (AID 651818); assay type: functional;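 further: compounds incubated with infected cells for about four days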
# [12] = P. falciparum Dd2 growth inhibitors, dose response, SYBR Green, cherry-picked samples (AID 1159567); assay type: functional, cell-based
# [13] = target: Paired box protein Pax-8 (Homo sapiens, UniProt Q06710); experiment: PAX8 transcriptional activity inhibition in RMG-I – RMG-I cells, luciferase, cherry-pick, dose response (AID 687027); assay type: functional, cell-based;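 further: luciferase reporter driven by Pax8 target thyroperoxidase promoter measured by SteadyGlo luminescence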
# Paired box protein Pax-8, sequence (Q06710 whole entry): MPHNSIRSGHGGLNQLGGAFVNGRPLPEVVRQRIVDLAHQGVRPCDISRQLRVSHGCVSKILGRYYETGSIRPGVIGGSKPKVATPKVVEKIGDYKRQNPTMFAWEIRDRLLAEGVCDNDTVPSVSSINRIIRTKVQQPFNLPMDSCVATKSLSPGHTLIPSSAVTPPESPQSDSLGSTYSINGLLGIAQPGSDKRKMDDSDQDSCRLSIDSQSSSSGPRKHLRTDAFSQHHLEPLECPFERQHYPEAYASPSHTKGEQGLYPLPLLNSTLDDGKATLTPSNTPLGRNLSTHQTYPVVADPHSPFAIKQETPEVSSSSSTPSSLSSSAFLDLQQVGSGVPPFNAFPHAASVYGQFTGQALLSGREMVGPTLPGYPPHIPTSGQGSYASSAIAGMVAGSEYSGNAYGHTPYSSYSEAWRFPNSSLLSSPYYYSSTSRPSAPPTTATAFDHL
# [14] = test system: Vero; experiment: cells; assay type: functional; details: Chlorocebus sabaeus
# [15] = test system: BJ; experiment: BJ-TERT fibroblast viability loss – cell-based, RAS-independent, luminescence, dose response (AID 1933); assay type: functional; details: Homo sapiens
# [16] = test system: BJ; experiment: BJ-TERT-LT-ST fibroblast viability loss – cell-based, RAS-independent, luminescence, dose response (AID 1935); assay type: functional; details: Homo sapiens;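 further: BJ fibroblasts immortalized with TERT plus LT and ST oncogenes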
# [17] = test system: BJ; experiment: cells; assay type: functional, cell-based; details: Homo sapiens
# [18] = DRD fibroblast viability loss – cell-based, non-viral oncogenic, luminescence, dose response (AID 1934); assay type: functional; details: Homo sapiens
# [19] = cells; assay type: functional
# [20] = target: T4, Fatty acid synthase (Homo sapiens, UniProt P49327); experiment: inhibition of human FAS-TE enzyme activity – biochemical, endpoint fluorescence intensity, uHTS hits, dose response (AID 624327); assay type: functional;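 further: fluorescence from hydrolysis of an O-methyl fluorescein acyl ester substrate by the enzyme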
# T4 sequence (P49327 whole entry): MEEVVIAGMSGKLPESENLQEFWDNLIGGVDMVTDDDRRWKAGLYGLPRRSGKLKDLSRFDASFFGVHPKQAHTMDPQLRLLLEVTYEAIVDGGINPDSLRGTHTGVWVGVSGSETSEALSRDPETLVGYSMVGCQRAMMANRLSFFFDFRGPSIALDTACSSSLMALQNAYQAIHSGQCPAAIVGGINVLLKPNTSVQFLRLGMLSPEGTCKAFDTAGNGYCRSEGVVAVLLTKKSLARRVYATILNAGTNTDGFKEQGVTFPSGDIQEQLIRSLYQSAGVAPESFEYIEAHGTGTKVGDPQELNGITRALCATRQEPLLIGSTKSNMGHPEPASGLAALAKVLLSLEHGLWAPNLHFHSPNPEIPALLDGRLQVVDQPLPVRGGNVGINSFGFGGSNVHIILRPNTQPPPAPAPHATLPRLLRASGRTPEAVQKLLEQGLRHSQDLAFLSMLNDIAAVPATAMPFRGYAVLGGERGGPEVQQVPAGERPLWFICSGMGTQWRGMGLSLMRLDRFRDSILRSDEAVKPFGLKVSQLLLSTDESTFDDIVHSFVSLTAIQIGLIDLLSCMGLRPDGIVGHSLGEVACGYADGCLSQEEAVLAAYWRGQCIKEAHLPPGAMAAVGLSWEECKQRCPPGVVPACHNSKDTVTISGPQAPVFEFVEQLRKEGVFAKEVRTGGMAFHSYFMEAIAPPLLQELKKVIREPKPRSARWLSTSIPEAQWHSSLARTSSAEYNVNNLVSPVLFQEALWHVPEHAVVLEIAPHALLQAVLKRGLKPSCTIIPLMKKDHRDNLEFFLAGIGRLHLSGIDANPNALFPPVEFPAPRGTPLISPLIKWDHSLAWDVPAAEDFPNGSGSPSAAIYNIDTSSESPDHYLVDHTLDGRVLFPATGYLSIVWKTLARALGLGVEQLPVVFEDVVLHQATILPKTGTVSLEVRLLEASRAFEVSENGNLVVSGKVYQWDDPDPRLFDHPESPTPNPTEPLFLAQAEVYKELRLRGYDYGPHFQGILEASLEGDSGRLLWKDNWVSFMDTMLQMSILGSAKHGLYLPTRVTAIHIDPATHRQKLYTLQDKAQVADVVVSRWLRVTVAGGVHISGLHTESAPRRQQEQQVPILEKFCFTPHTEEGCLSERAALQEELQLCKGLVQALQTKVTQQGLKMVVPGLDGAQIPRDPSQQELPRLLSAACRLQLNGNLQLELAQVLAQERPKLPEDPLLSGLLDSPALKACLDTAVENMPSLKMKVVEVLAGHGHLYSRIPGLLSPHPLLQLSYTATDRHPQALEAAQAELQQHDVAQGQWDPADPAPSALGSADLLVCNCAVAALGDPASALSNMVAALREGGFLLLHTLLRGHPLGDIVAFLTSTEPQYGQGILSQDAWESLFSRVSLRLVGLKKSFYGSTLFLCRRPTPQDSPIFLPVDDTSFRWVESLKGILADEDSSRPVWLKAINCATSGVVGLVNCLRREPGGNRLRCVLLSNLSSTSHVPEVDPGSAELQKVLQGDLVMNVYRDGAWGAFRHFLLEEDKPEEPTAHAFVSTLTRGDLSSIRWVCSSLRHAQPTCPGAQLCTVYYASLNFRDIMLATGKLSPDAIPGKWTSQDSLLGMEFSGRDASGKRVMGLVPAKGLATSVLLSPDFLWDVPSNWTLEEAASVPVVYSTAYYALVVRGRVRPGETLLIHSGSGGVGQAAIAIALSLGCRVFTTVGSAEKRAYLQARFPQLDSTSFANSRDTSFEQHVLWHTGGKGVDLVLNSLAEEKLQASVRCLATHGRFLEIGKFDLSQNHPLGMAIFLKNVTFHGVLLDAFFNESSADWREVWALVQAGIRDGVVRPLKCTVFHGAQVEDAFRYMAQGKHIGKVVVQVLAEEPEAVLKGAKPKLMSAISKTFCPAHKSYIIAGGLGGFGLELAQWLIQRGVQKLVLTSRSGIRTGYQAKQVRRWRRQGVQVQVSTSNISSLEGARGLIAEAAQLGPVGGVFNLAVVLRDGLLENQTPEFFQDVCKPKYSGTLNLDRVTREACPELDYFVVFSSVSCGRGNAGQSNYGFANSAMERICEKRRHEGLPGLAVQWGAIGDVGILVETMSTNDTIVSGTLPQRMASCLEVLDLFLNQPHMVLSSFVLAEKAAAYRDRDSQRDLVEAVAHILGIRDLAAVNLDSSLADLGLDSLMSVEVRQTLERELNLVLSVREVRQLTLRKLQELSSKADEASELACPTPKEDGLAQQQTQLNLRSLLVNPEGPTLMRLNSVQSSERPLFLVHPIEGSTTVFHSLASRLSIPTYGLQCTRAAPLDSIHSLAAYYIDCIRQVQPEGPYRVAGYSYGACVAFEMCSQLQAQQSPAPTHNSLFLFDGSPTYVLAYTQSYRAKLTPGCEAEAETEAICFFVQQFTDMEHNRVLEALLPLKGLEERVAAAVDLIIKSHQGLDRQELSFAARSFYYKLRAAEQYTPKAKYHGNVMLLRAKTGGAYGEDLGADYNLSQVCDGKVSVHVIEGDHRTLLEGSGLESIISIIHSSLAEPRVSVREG
# [21] = target: T4, Fatty acid synthase; experiment: inhibition of human FAS-TE enzyme activity – biochemical, kinetic fluorescence intensity, dose response (AID 624326); assay type: functional;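 further: rate of fluorescence rise from hydrolysis of a fluorogenic O-methyl fluorescein ester substrate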
compound,measurement,setting,value
O=C(COC(=O)CCC(=O)c1ccc(F)cc1)Nc1cccc(S(=O)(=O)N2CCCC2)c1,EC50,[1],15.5 µM (active)
same,EC50,[2],> 112 µM (not active)
O=C1c2ccccc2C(=O)N1CCCCSc1nc2ccccc2c(=O)n1CCCN1CCOCC1,IC50,[3],10.1 µM (active)
O=C(Nc1ccccc1C(=O)Nc1ccccc1C(=O)NCc1ccco1)c1ccco1,IC50,[3],> 79 µM (inactive)
O=C(CCCCCn1nnc2ccccc2c1=O)N[C@H](C(=O)O)c1ccccc1,EC50,[1],> 112 µM (not active)
same,EC50,[2],> 112 µM (not active)
CCOC(=O)c1c(C)oc2ccc(NS(=O)(=O)c3ccc(C(=O)O)cc3)cc12,IC50,[4],43.9 µM (active)
O=C(CN(CCN1CCOCC1)C(=O)Cn1nnc(-c2ccc(F)cc2)n1)NC1CCCCC1,EC50,[1],> 112 µM (not active)
same,EC50,[2],> 112 µM (not active)
COc1cc(/C=C2/C(=N)N3C=CSC3=NC2=O)ccc1OCCCOc1ccccc1C,EC50,[5],70.8 µM (active)
same,EC50,[6],58.3 µM (active)
same,EC50,[7],5.59 µM (active)
same,IC50,[8],> 50 µM (not active)
Cc1sc(NC(=O)c2ccco2)c(C(c2cccnc2)N2CCCC2)c1C (configuration not stated),IC50,[9],> 100 µM (inactive)
same,AC50,[10],10 µM (inconclusive)
C[C@@H]1CN([C@@H](C)CO)C(=O)Cc2cc(NC(=O)Nc3ccc4c(c3)OCO4)ccc2O[C@@H]1CN(C)Cc1ccc(C(=O)Nc2ccccc2N)cc1,AC50,[11],2.38 µM (active)
COc1ccc(OCC(=O)Nc2ccc3c(c2)nc(CN2CCCC2)n3C)cc1,EC50,[1],> 112 µM (not active)
same,EC50,[2],> 112 µM (not active)
C[C@H](CO)N1C[C@H](C)[C@@H](CN(C)C(=O)Nc2ccc(F)cc2)Oc2ccc(NC(=O)Nc3ccc(C(F)(F)F)cc3)cc2CC1=O,AC50,[12],3.77 µM (active)
O=C(Nc1cccc(F)c1)N[C@@H]1CC[C@@H](CCNS(=O)(=O)c2cccc(Cl)c2)O[C@@H]1CO,AC50,[13],42.7 µM (active)
same,AC50,[12],18.6 µM (active)
N#Cc1c(-c2ccccc2)cc(-c2ccco2)c(C#N)c1N,IC50,[8],33.5 µM (not active)
COc1ccc(NC(=O)Nc2ccc3c(c2)CC(=O)N([C@H](C)CO)C[C@@H](C)[C@@H](CN(C)Cc2ccc(C(F)(F)F)cc2)O3)cc1,AC50,[11],3.52 µM (active)
CC(=O)N1CC2(C1)[C@@H](c1ccc(-c3cccc(F)c3)cc1)[C@@H](CO)N2CC1CCCC1,AC50,[12],6.15 µM (active)
Cc1cc(C)nc(NN=CC2=C(N3CCOCC3)/C(=C/c3ccc(Cl)cc3)CC2)n1,CC50,[14],> 25 µM (active)
CCOC(=O)c1cccc(NC(=O)CN2C(=O)C3C4C=CC(C4)C3C2=O)c1 (configuration not stated),IC50,[4],14.2 µM (active)
N#CCCn1c(SCC(=O)c2c[nH]c3ccccc23)nc2ccccc21,IC50,[3],> 79 µM (inactive)
COc1cc(C(=O)Nc2nc(C)c(Cc3ccc4c(c3)OCO4)s2)cc(OC)c1OC,EC50,[15],2.49 µM (active)
same,EC50,[16],1.68 µM (active)
same,EC50,[17],133 µM (active)
same,EC50,[18],2.04 µM (active)
Cc1cc(N2CCCCC2)ccc1C=C1C(=O)N(C)C(=S)N(C)C1=O,IC50,[4],40.9 µM (active)
CCOc1cc(/C=N/NC(=O)c2ccccn2)ccc1OC(=O)c1cccs1,IC50,[19],26.5 µM (active)
COc1ccc(C(=O)COC(=O)c2ccc(Cl)nc2)c(OC)c1,IC50,[19],13.2 µM (active)
O=C(Nc1nccs1)c1ccc2ccccc2n1,IC50,[9],21.3 µM (active)
C[C@@H]1CCCCO[C@H](CN(C)C(=O)Nc2ccc(C(F)(F)F)cc2)[C@@H](C)CN([C@H](C)CO)C(=O)c2cc(NC(=O)Cc3ccccc3)ccc2O1,AC50,[11],1.78 µM (active)
CN1CCc2c(sc3nc(SCC(=O)N4CCCCC4)n(-c4ccccc4)c(=O)c23)C1,EC50,[1],12.9 µM (active)
same,EC50,[2],> 112 µM (not active)
Cc1nn(-c2ccccc2)c2sc(C(=O)OCN3C(=O)c4ccccc4C3=O)cc12,IC50,[8],9.75 µM (active)
CN(C)C(=O)CN1C(=O)NC2(CCc3ccccc32)C1=O (configuration not stated),IC50,[9],> 100 µM (inactive)
C[C@@H]1CN([C@H](C)CO)C(=O)Cc2cc(NS(=O)(=O)c3ccccc3)ccc2O[C@@H]1CN(C)S(=O)(=O)c1ccc(Cl)cc1,AC50,[13],35.5 µM (active)
same,AC50,[11],2.08 µM (active)
O=C1C(C2=NC(C(=O)O)C3C(=O)N(c4ccccc4)C(=O)C23)=C(O)c2ccccc21 (configuration not stated),IC50,[4],68 µM (active)
O=C(Nc1ccc2snnc2c1)N1CCSCC1,IC50,[9],> 100 µM (inactive)
C[C@H]1CN([C@@H](C)CO)C(=O)Cc2cc(NC(=O)Nc3ccc(C(F)(F)F)cc3)ccc2O[C@H]1CN(C)CC1CCCCC1,AC50,[11],3.6 µM (active)
CCOc1ccc(N(CC(=O)N/N=C/c2ccccn2)S(=O)(=O)c2ccc(Cl)cc2)cc1,IC50,[3],> 79 µM (inactive)
same,IC50,[20],10.6 µM (active)
same,IC50,[21],5.79 µM (active)
O=C(Nc1cccc(C(=O)O)c1)/C(=C\c1ccc2c(c1)OCO2)NC(=O)c1ccc(Br)o1,IC50,[4],65 µM (active)
CCc1nnc(NC(=O)C(C)Sc2ccccc2)s1 (configuration not stated),IC50,[4],3.57 µM (active)
COc1ccc2c3c([nH]c2c1)[C@H](CO)N(Cc1cc(F)ccc1F)CC31CCN(C(=O)C2CCC2)CC1,AC50,[12],3.36 µM (active)
CC1CCCN(C(=O)COC(=O)c2n[nH]c3ccccc23)C1 (configuration not stated),IC50,[8],> 50 µM (not active)
